The source of these data is publication PMC4891657, “Orexin 2 Receptor Antagonism is Sufficient to Promote NREM and REM Sleep from Mouse to Man” (Scientific Reports, 2016).

The Cmax is the highest concentration seen after dosing. As usually defined, the Tmax is the time at which the peak concentration occurs.

Data set [1] can be described thus: Plasma exposure in dogs after oral dosing. Type of data set: in vivo, dog. The following applies: for Cmax / Tmax / AUC(0-t): beagle, dog, plasma.
The nature of data set [2]: Safety and tolerability, ascending single-dose study. It counts as in vivo, human. An excerpt:
(§1) In the ascending single-dose study, 52 AEs were considered to be related to the study drug, the most common of which was somnolence/sleepiness, drowsiness, and tiredness (15 of 16 subjects dosed with MK-1064), consistent with the intended pharmacological activity. […] In the PSG study, 13 of the 20 subjects enrolled reported ≥1 clinical AE. Of 24 clinical AEs reported, 18 were considered to be related to study treatment, all of which were mild or moderate in intensity. One report of transient sleep paralysis following MK-1064 250 mg was noted, while the most common MK-1064-related AEs were headache (3 subjects), nightmares (2 subjects) and dizziness (1 subject) (Supplementary Table 2).
MK-1064 safety, PK and PD were evaluated in a randomised, double-blind, placebo-controlled, alternating panel, single oral ascending-dose first-in-human study (see Fig. 5). Participants were unmedicated healthy male subjects (age 18–45 years) without a history of physical or mental illnesses or sleep abnormalities. Two panels received alternating single ascending oral doses of MK-1064 in up to 5 treatment periods (Panel A: 5, 25, 100 and 200 mg [fasting conditions], 25 mg [fed condition], or matching placebo; Panel B: 10, 50, 150 and 250 mg [all daytime administration], 50 mg [evening administration], or matching placebo). Within each period, subjects were randomized to active treatment (N = 6) and placebo (N = 2) groups. There was a minimum of 3 days between ascending doses occurring between alternating subject panels to enable safety data review; treatments within subject panels were separated by a minimum 7-day washout period. The safety and tolerability of MK-1064 were monitored throughout the study by repeated evaluations of AEs, clinical assessments (semi-recumbent and orthostatic vital signs measurements, 12-lead electrocardiograms (ECGs), physical examinations, neurologic examinations), and safety laboratory tests (chemistry, hematology, urinalysis).

Data set [3] in a line: Safety and tolerability, PSG study. It counts as in vivo, human.
Description: as §1
Twenty healthy male subjects between the ages of 18 and 45 years were recruited to a double-blind, randomized, 4-period, crossover study to evaluate the effects of single doses of MK-1064. Subjects were without a history of physical or mental illnesses, had no history of sleep abnormalities, and were not regularly taking medication. Subject inclusion required a sleep score ≤6 on the Pittsburgh Sleep Quality Index at the time of screening, and qualified subjects underwent a PSG screening prior to randomization to exclude those with latent sleep disturbances. In each of the 4 treatment periods, subjects were randomized to receive single doses of MK-1064 (50, 120, or 250 mg) or matching placebo according to a balanced crossover design (see Fig. 5). Briefly, 20 subjects were randomized to 4 panels (n = 5 each). Each panel then received each of the four treatments (placebo, 50, 120, 250 mg MK-1064) in 4 different study periods where each period allocated the 4 different treatments to the 4 different subject panels. Progression through each period rotated the 4 different treatments among the subject panels such that each panel ultimately received all 4 treatments. In all 4 study periods, subjects were admitted for a pre-dose habituation night. On the following treatment night, subjects were administered a single dose of study medication in a blinded manner approximately 1 hour before their habitual bedtime. Study medication was administered following a ≥4-hour fast. Dosing in different treatment periods was separated by a washout of at least 7 days for each subject. PSG recording commenced at 1 hour post-dose and continued during undisturbed sleep for 8 hours overnight. Visual scoring of each 30-sec epoch of PSG recording to wake or one of four sleep states (S1, S2, SWS, collectively referred to as NREM, and REM) was performed according to standard and established Rechtschaffen and Kales criteria. Obtained scores were then used to calculate efficacy assessment measures including latency to persistent sleep (LPS) (min), wake after sleep onset (WASO) (min), sleep efficiency (SE) (%), and total sleep time (TST) (min). LPS is the time from lights off to the first epoch of 20 consecutive epochs of non-wake stage; WASO is the time in wake stage between the onset of persistent sleep and the time of lights on; and SE is the proportion of time between lights off and lights on that was spent in sleep. In addition to efficacy parameters, latency to REM (LREM) (min), equal to the time from lights off to the first epoch of REM, and the proportion (%) of TST spent in NREM and REM were calculated. Estimation of the effects of treatment on PSG endpoints relative to placebo, including the calculation of confidence intervals and p-values were done using a mixed-effect statistical model typical for crossover studies. Specifically, logarithm of an analyzed endpoint represented the response variable, and treatment dose, treatment period, and carryover effect were fixed-effect explanatory variables. Subject effect was the random effect with the within-subject covariance assumed to be of the unstructured type. […] SAS/STAT® Version 9.3 software (SAS Institute, Cary NC) was used in the analysis.

The subject of the next data set is somnolence / alertness. The data set can be described thus: Karolinska Sleepiness Scale and Bond and Lader VAS in healthy subjects. It counts as in vivo, human. The following applies: all single doses greater than 5 mg. The protocol: In the ascending single-dose study, doses of MK-1064 ranging from 5 to 250 mg corresponded with dose-dependent changes in measured plasma levels (Fig. 6a). […] The greatest effects were observed between 1 and 4 hours, and effects greatly diminished 8 hours following treatment, consistent with the time course of plasma concentrations of MK-1064.
Figure 6 MK-1064 dose-dependently promotes somnolence and attenuates arousal in healthy human subjects. (a) Plasma concentration of MK-1064 over time following administration of single doses of MK-1064 5–250 mg. (b) Somnolence, as measured by the KSS, and (c) alertness, as measured by the Bond and Lader VAS, over time following administration of single doses of MK-1064 (5–250 mg) or placebo in healthy human subjects (N = 20).
During each treatment period, blood was collected for PK analysis pre-dose and at time points up to 72 hours post-dose. MK-1064 plasma concentrations were determined by reverse phase high-performance liquid chromatography and detected with tandem mass spectrometry. The lower limit of quantitation was 1 ng/mL and the linear calibration range was 1–1000 ng/mL. PK parameters were calculated with WinNonLin 5.2.1. Values below the assay limit of quantification were indicated with a zero value. […]

Details of data set [4]: method as in PMID 24376006. The following applies: dogs ref 29; cited from earlier work.

Each structure is given as a SMILES string. Where two headings read alike, the source gives them in different places.

In the case of `COc1ccc(CNC(=O)c2cc(-c3cncc(Cl)c3)cnc2-c2ccccn2)nc1OC` [MK-1064, 5″-chloro-N-[(5,6-dimethoxypyridin-2-yl)methyl]-2,2′:5′, 3″-terpyridine-3′-carbo xamide], in data set [1] (20 mg/kg oral), the “expected unbound drug levels at 1 hour (~Tmax)” value was “approximately 4.4 μM”, the highest level (Cmax) was 15.3 µM and the Tmax is 48 min. Moreover, in data set [1] (1 mg/kg oral), the maximum concentration (Cmax) is 1 µM and the Tmax amounted to 18 min. The AUC(0-t) in data set [1] (1 mg/kg oral, read-out: AUC0–24) amounted to 3.4 µM·h. Besides, the AUC(0-t) in data set [1] (20 mg/kg oral, read-out: AUC0-24) stood at 56.5 µM·h. Also, in data set [2] (ascending single-dose study), the “subjects who experienced headaches” value is “Nine” and the “suspected serious adverse reactions” value is “no suspected serious adverse reactions were observed”. Moreover, the “AEs considered to be related to the study drug” value in data set [2] (ascending single-dose study, 5–250 mg) is recorded as 52. The “subjects with somnolence/sleepiness, drowsiness, and tiredness” value in data set [2] (ascending single-dose study, subjects dosed with MK-1064) was 15 of 16. Moreover, the tolerability entry in data set [2] (both Phase I studies, healthy male subjects) was “well tolerated”. For the same compound, in data set [3], the “MK-1064-related AE dizziness” value is given as 1 subject, the “MK-1064-related AE headache” value amounted to 3 subjects, the “MK-1064-related AE nightmares” value is on record as 2 subjects and the “clinical AEs reported” value is on record as 24. Further, in data set [3] (250 mg), the “reports of transient sleep paralysis” value was “One”. The “subjects reporting ≥1 clinical AE” value in data set [3] (20 subjects enrolled, crossover 50, 120, 250 mg and placebo) came to 13 subjects. The “clinical AEs considered to be related to study treatment” value in data set [3] (all mild or moderate) worked out at 18. The “subject-reported somnolence (KSS) and drowsiness (alertness VAS)” value in the data set on somnolence / alertness was “Dose-dependent increases”. Besides, in data set [4], the “minimum plasma concentration needed for sleep-promoting efficacy” value was 0.028 µM.
